Test results taken from patent publication US20090104119A1, “Dendrimer Based Compositions And Methods Of Using The Same” (priority 2004, published 2009).

Experiments:
[1] = system: low FAR-expressing KB cells; experiment: Cellular uptake/binding of dendrimers in low-FAR KB cells, flow cytometry; format: cell-based, human
Protocol: (§1) Cell culture and treatment.
(§2) Flow Cytometry and Confocal Microscopy. The standard fluorescence of the dendrimer solutions was quantified using a Beckman spectrofluorimeter. For flow cytometric analysis of the uptake of the targeted polymer, cells were trypsinized and suspended in PBS containing 0.1% bovine serum albumin (PBSB) and analyzed using a Becton Dickinson FACScan analyzer. The FL1-fluorescence of 10,000 cells was measured and the mean fluorescence of gated viable cells was quantified. Confocal microscopic analysis was performed in cells plated on a glass cover-slip, using a Carl Ziess confocal microscope. Fluorescence and differential interference contrast (DIC) images were collected simultaneously using an argon laser, using the appropriate filters for FITC.
(§3) The effect of free FA on the uptake of the dendrimers was tested in KB cells that express both high and low FAR. The binding of the conjugates to the low FAR-expressing KB cells was 30% of that of the high FAR-expressing cells for both the G5-FITC-FA and G5-FITC-FA-MTX (See, for e.g., FIG. 19, left panel). […] The binding and internalization of the dendrimers to KB cells was assessed by confocal microscopy. KB cells were incubated with 250 nM of the indicated dendrimers for 24 hours and confocal images were taken. Conjugates containing the targeting molecule FA internalized into KB cells within 24 h (See, e.g., FIG. 20).
Time course and dose dependent inhibition of cell growth.

KB cells = experiment: Binding and internalization of dendrimers by confocal microscopy; format: cell-based, human; conditions: 250 nM, 24 hours, compared to control conjugates
Protocol: as §2, §3

[2] = Toxicity of dendrimer conjugates and free methotrexate in mice (body weight, histopathology); format: in vivo; conditions: occasional periportal lymphocytes, single-cell necrosis
Protocol: Delivery of targeted nanoparticle therapeutic. Twice weekly, SCID mice with s.c. KB xenografts, starting on day 4 after tumor implantation, received via the tail vein an injection of either targeted or nontargeted conjugate containing methotrexate, a conjugate without methotrexate, free methotrexate, or saline as a control. The compounds were delivered in a 0.2 mL volume of saline per 20 g of mouse. The single dose of methotrexate delivered each time equaled 0.33 mg/kg. The higher doses of 1.67 and 3.33 mg/kg free methotrexate were also tested. The conjugates were delivered at equimolar concentration of methotrexate calculated based on the number of methotrexate molecules present in a nanoparticle. The conjugate without methotrexate was delivered at equimolar concentration of dendrimer. In the initial trial, six groups of mice with five mice in each group received up to 15 injections. In the follow-up trial, mice received up to 28 injections dependent on their survival. The body weights of the mice were monitored throughout the experiment as an indication of adverse effects of the drug. Histopathology of multiple organs was done at the termination of each trial and each time mouse had to be euthanized due to toxic effects or tumor burden. Tissues from lung, heart, liver, pancreas, spleen, kidney, and tumor were analyzed. Additionally, cells were isolated from tumors, stained with targeted fluorescein-labeled conjugate, and tested for the presence of folic acid receptors using flow cytometer.
Toxicity of dendrimer conjugates. […] No gross toxicity, either acutely or chronically up to 99 days, was observed regardless of whether the dendrimer conjugate contained methotrexate. The weight was monitored throughout the experiment and no loss of weight was observed; in fact, the animals gained weight. At each time point, a gross examination and histopathology of the liver, spleen, kidney, lung, and heart were done. No morphologic abnormalities were observed on the histopathology examination.
The remaining experimental groups had very uniform body weight fluctuations nonindicative of toxicity when compared with control groups with saline or conjugate without methotrexate.

[3] = Stability of dendrimer in cell culture medium (MTX release; ultrafiltration, XTT readout); format: physicochemical
Protocol: The stability of the dendrimer was tested in cell culture medium to check if MTX was released from the dendrimer prior to its entry into the cells. The G5-FITC-FA-MTX was incubated with cell culture medium for 1, 2, 4 and 24 h, and the incubation medium was filtered using a 10,000-MW cutoff ultrafiltration device. The effect of the retentate and the filtrate on the growth of the KB cells was tested. G5-FITC-FA-MTX was incubated with medium at 2 μM concentration for 24 h. The incubation medium was filtered through a Centricon 10K-MW cutoff filter. The retentate (adjusted to pre-filtration volume) and the filtrate were incubated with KB cells (at 200 nM conjugate, as determined from the concentration of the pre-filtration sample) for 2 days and the XTT assay was performed. Similar results were obtained for the retentate and filtrate obtained from the medium that had been pre-incubated with the dendrimers for 1, 2, and 4 hours. […] There was a slow release of the MTX after 24 h, reaching a maximum of 40-50% release in 1 week.

[4] = system: KB cells which express a high cell surface FA receptor (FAR); experiment: Cellular uptake/binding of dendrimers in high-FAR KB cells, flow cytometry; format: cell-based, human
Protocol: as §1, §2
The cellular uptake of the dendrimers was measured in KB cells which express a high cell surface FA receptor (FAR). The FA-conjugated dendrimers bound to the cells in a dose-dependent fashion, with 50% binding at 10-15 nM for both the G5-FITC-FA and G5-FITC-FA-MTX, while the control dendrimer G5-FITC was not detected in the KB cells (See, e.g., FIG. 18A). Identical binding curves were obtained for the G5-FITC-FA and G5-FITC-FA-MTX when the fluorescence obtained was normalized for the quenching observed in the standard solutions of the dendrimers (See e.g., FIG. 18B).
as §3

[5] = 2 μM, up to 24 h in medium, 10K-MW cutoff filter, KB cells 2 days, XTT

G5-(Ac)82-(FITC)5-(FA)5-MTX5 [G5-FITC-FA-MTX]
binding to low FAR-expressing KB cells relative to high FAR-expressing cells [1]: 30% | effect of free FA on uptake, low-FAR expressing cells ([1]; 50 μM FA, dendrimer 30 nM): completely blocked | cell morphology indicating cytotoxicity (KB cells): less adherent and rounded up | liver slides versus saline controls [2]: did not differ from that of control animals injected with saline | cytotoxicity of filtrate after incubation in medium [3, 5]: failed to show any cytotoxicity | cytotoxicity of retentate after incubation in medium [3, 5]: cytotoxic | release of MTX, maximum ([3]; slow release after 24 h, in 1 week): 40-50% | time to maximal binding ([4]; 100 nM): ≤ 30 min | effect of free FA on uptake, high-FAR expressing cells ([4]; 50 μM FA, dendrimer 30 nM): completely blocked
